Reference: patent publication US20250282799A1, “SUBSTITUTED PYRIDO[4,3-d]PYRIMIDINES AS KRAS MODULATORS” (Alterome Therapeutics, Inc., priority 2023, published 2025)

system: KRAS G12V dependent lung adenocarcinoma cell line, NCI-H441; experiment: Cellular pERK (Thr202/Tyr204) FRET/HTRF assay; type: cell-based; conditions: Homo sapiens, NCI-H441, cellular pERK (Thr202/Tyr204) HTRF, NCI-H441 cells
Source text: “Ras” refers to a protein in the Ras superfamily of small GTPases, such as in the Ras subfamily. […] The Ras proteins play a critical role in the regulation of cell behaviors, including proliferation, differentiation, and survival. […] KRAS G12V, G12D, and G12S variants are common in human cancers and Ras inhibitors binding in or near the Switch II pocket may provide mutant binding selectivity. RAS mutations are known to be often associated with pancreatic, colorectal and non-small-cell lung carcinomas (Lone, A. M. et al. J. Am. Chem. Soc. 2011,133, 11665-74, which is entirely incorporated herein by reference; Dillon, M. B.; Bachovchin, D. A.; Brown, S. J.; Finn, M. G.; Rosen, H.; Cravatt, B. F.; Mowen, K. A. ACS Chem. Biol. 2012, 7, 1198-204, which is entirely incorporated herein by reference; Bachovchin, D. A.; Brown, S. J.; Rosen, H.; Cravatt, B. F. Nat. Biotechnol. 2009, 27, 387-94, Ostrem, J. M.; Peters, U.; Sos, M. L.; Wells, J. A.; Shokat, K. M. Nature 2013, 503, 548-551. Ryan M. B. and Corcoran R. B, Nat. Rev Clin Onco. 2018, 11, 709-720.). Ras proteins are key members in the Ras/Raf/Mitogen-activated protein kinase (MAPK) signaling pathway. This pathway regulates a wide variety of cellular processes, including proliferation, differentiation, apoptosis, and stress responses. One way to measure the impact of an inhibitor of Ras proteins is to measure downstream phosphorylation of proteins in the MAPK pathway. The MAPK pathway includes extracellular signal-regulated kinases named ERK1 and ERK2, which are serine-threonine kinases that regulate cellular signaling under both normal and oncogenic conditions. ERK expression and hyperactivation via phosphorylation plays a major role in cancer progression and are downstream of Ras proteins. The assay used for measuring the downstream impact of Ras inhibition is the use of a highly sensitive cell-based readout of ERK phosphorylation (pERK) specifically on Threonine (Thr) 202 and Tyrosine (Tyr) 204 in a KRAS G12V dependent lung adenocarcinoma cell line, NCI-H441 (ATCC Cat #HTB-174). The assay described herein is suitable for assessing inhibition of Ras and can be tailored for any of the predominant oncogenic mutations in any isoform of Ras (e.g., KRAS, HRAS, and NRAS) by changing the cell line.
pERK was measured using an advanced pERK assay designed for the robust and highly sensitive quantification of ERK phosphorylation on Thr202/Tyr204. This assay is intended for the simple, rapid, and direct detection of endogenous levels of ERK1/2 in cells, but only when ERK is phosphorylated at Thr202 and Tyr204 (Perkin Elmer Catalog #64AERPEH). pERK was detected in a FRET based sandwich assay format using 2 different specific antibodies, one labelled with Eu3+-Cryptate (donor) and the second with d2 (acceptor). When the dyes are in close proximity, the excitation of the donor with a light source (laser or flash lamp) triggers a Fluorescence Resonance Energy Transfer (FRET) towards the acceptor, which in turn fluoresces at a specific wavelength (665 nm). The specific signal modulates positively in proportion to p-ERK1/2 (Thr202/Tyr204). The simple mix-and-read protocol eliminates all wash steps for faster analysis and high-quality output. Briefly, cells were diluted to the desired concentration per well based on a growth curve showing ˜75% confluence within a 24-hour time period at no less than 95% viability. Cell suspension (24 μL) were added into each well of 384-well culture plate and maintained in 37° C. 5% CO2 incubator overnight prior to assay. All compounds were transferred to stock plates using TECAN (EVO200) liquid handler using DMSO as the solubilizing and dilution agent. Test compounds were transferred onto adherent cells using an Echo655 liquid handler. DMSO was employed as negative control. Cells were incubated with test compounds for 1 hr in a 37° C., 5% CO2 incubator following compound addition. […]

Row | Compound | IC50 [nM]
1 | Cc1c(F)c(N)cc(-c2ncc3c(N4CCCC[C@H]5[C@H](F)[C@H]54)nc(OC[C@]45C/C(=C\F)CN4CCC54CC4)nc3c2F)c1C(F)(F)F [Example 380, 2-fluoro-5-(8-fluoro-4-((1S,7R,8S)-8-fluoro-2-azabicyclo[5.1.0]octan-2-yl)-2-(((R,E)-6′-(fluoromethylene)tetrahydrospiro[cyclopropane-1,1′-pyrrolizin]-7a′(5′H)-yl)methoxy)pyrido[4,3-d]pyrimidin-7-yl)-3-methyl-4-(trifluoromethyl)aniline] | 50 to 500
2 | [2H]C([2H])([2H])Oc1c(F)cc(F)c2cc(N)cc(-c3ncc4c(N5CCOC[C@H]6[C@H](F)[C@H]65)nc(OC[C@@]56CCCN5C/C(=C\F)C6)nc4c3F)c12 [Example 172, 6,8-difluoro-4-(8-fluoro-4-((1S,7S,8S)-8-fluoro-5-oxa-2-azabicyclo[5.1.0]octan-2-yl)-2-(((S,Z)-2-(fluoromethylene)tetrahydro-1H-pyrrolizin-7a(5H)-yl)methoxy)pyrido[4,3-d]pyrimidin-7-yl)-5-(methoxy-d3)naphthalen-2-amine] | < 50
3 | [2H]C1([2H])CC[C@@]2(C([2H])([2H])Oc3nc(N4CCOC[C@H]5[C@H](F)[C@H]54)c4cnc(-c5cc(N)cc6ccc(F)c(C#C)c56)c(F)c4n3)C[C@@]([2H])(F)CN12 [Example 193, 5-ethynyl-6-fluoro-4-(8-fluoro-4-((1S,7S,8S)-8-fluoro-5-oxa-2-azabicyclo[5.1.0]octan-2-yl)-2-(((2R,7aS)-2-fluorotetrahydro-1H-pyrrolizin-7a(5H)-yl-2,5,5-d3)methoxy-d2)pyrido[4,3-d]pyrimidin-7-yl)naphthalen-2-amine] | < 50
4 | [2H]C([2H])(Oc1nc(N2CCOC[C@H]3[C@H](Cl)[C@H]32)c2cnc(-c3cccc4ccc(F)c(C#C)c34)c(F)c2n1)[C@@]12CCCN1C[C@H](F)C2 [Example 290, (1S,7S,8S)-8-chloro-2-(7-(8-ethynyl-7-fluoronaphthalen-1-yl)-8-fluoro-2-(((2R,7aS)-2-fluorotetrahydro-1H-pyrrolizin-7a(5H)-yl)methoxy-d2)pyrido[4,3-d]pyrimidin-4-yl)-5-oxa-2-azabicyclo[5.1.0]octane] | < 50
5 | [2H]C([2H])(F)Oc1c(F)ccc2cncc(-c3ncc4c(N5CCOC[C@H]6[C@H](F)[C@H]65)nc(OC([2H])([2H])[C@@]56CCCN5C[C@H](F)C6)nc4c3F)c12 [Example 127, (1S,7S,8S)-8-Fluoro-2-(8-fluoro-7-(6-fluoro-5-(fluoromethoxy-d2)isoquinolin-4-yl)-2-(((2R,7aS)-2-fluorotetrahydro-1H-pyrrolizin-7a(5H)-yl)methoxy-d2)pyrido[4,3-d]pyrimidin-4-yl)-5-oxa-2-azabicyclo[5.1.0]octane] | 500 to 10000
6 | [2H]C([2H])(Oc1nc(N2CCOC[C@H]3[C@H](F)[C@H]32)c2cnc(-c3cncc4ccc(F)c(OCF)c34)c(F)c2n1)[C@@]12CCCN1C[C@H](F)C2 [Example 126, (1S,7S,8S)-8-Fluoro-2-(8-fluoro-7-(6-fluoro-5-(fluoromethoxy)isoquinolin-4-yl)-2-(((2R,7aS)-2-fluorotetrahydro-1H-pyrrolizin-7a(5H)-yl)methoxy-d2)pyrido[4,3-d]pyrimidin-4-yl)-5-oxa-2-azabicyclo[5.1.0]octane] | < 50
7 | [2H]C([2H])(F)Oc1c(F)ccc2cccc(-c3ncc4c(N5CCCC[C@H]6[C@H](F)[C@H]65)nc(OC[C@]56CC(=C(F)F)CN5CCC65CC5)nc4c3F)c12 [Example 413, (R)-6′-(difluoromethylene)-7a′-(((8-fluoro-7-(7-fluoro-8-(fluoromethoxy-d2)naphthalen-1-yl)-4-((1S,7R,8S)-8-fluoro-2-azabicyclo[5.1.0]octan-2-yl)pyrido[4,3-d]pyrimidin-2-yl)oxy)methyl)hexahydrospiro [cyclopropane-1,1′-pyrrolizine]] | 50 to 500
8 | Cc1c(F)c(N)cc(-c2ncc3c(N4CCCC[C@@H]5[C@@H](F)[C@@H]54)nc(OC[C@@]45CCCN4C/C(=C/F)C5)nc3c2F)c1C(F)(F)F [Example 397, 2-fluoro-5-(8-fluoro-4-((1R,7S,8R)-8-fluoro-2-azabicyclo[5.1.0]octan-2-yl)-2-(((S,E)-2-(fluoromethylene)tetrahydro-1H-pyrrolizin-7a(5H)-yl)methoxy)pyrido[4,3-d]pyrimidin-7-yl)-3-methyl-4-(trifluoromethyl)aniline] | 500 to 10000

same assay, conditions: Homo sapiens, NCI-H441, cellular pERK HTRF, NCI-H441 (KRAS G12V) cells

Row | Compound | IC50 [nM]
9 | C#Cc1c(F)ccc2cc(N)cc(-c3ncc4c(N5CCOC[C@H]6[C@H](F)[C@H]65)nc(OC[C@]56CC(=C(F)F)CN5CCC65CC5)nc4c3C)c12 [Example 437, 4-(2-(((R)-6′-(difluoromethylene)tetrahydrospiro [cyclopropane-1,1′-pyrrolizin]-7a′(5′H)-yl)methoxy)-4-((1S,7S,8S)-8-fluoro-5-oxa-2-azabicyclo[5.1.0]octan-2-yl)-8-methylpyrido[4,3-d]pyrimidin-7-yl)-5-ethynyl-6-fluoronaphthalen-2-amine] | < 50

same assay, conditions: Homo sapiens, NCI-H441, pERK HTRF, NCI-H441 cells (KRAS G12V)

Row | Compound | IC50 [nM]
10 | [2H]C([2H])(Oc1nc(N2CCCO[C@@H]3C[C@@H]32)c2c(OC)nc(-c3cc(O)cc4ccc(F)c(C#C)c34)c(F)c2n1)[C@@]12CCCN1C[C@H](F)C2 [Example 35, 4-(4-((1R,7S)-2-Oxa-6-azabicyclo[5.1.0]octan-6-yl)-8-fluoro-2-(((2R,7aS)-2-fluorotetrahydro-1H-pyrrolizin-7a(5H)-yl)methoxy-d2)-5-methoxypyrido[4,3-d]pyrimidin-7-yl)-5-ethynyl-6-fluoronaphthalen-2-ol] | 50 to 500
11 | [2H]C([2H])(Oc1nc(N2CCCC[C@@H]3C[C@@H]32)c2cnc(-c3cc(N)cc4cc(F)c(F)c(C#C)c34)c(F)c2n1)[C@@]12CCCN1C[C@H](F)C2 [Example 7, 4-(4-((1S,7R)-2-Azabicyclo[5.1.0]octan-2-yl)-8-fluoro-2-(((2R,7aS)-2-fluorotetrahydro-1H-pyrrolizin-7a(5H)-yl)methoxy-d2)pyrido[4,3-d]pyrimidin-7-yl)-5-ethynyl-6,7-difluoronaphthalen-2-amine] | 500 to 10000
12 | C#Cc1c(F)ccc2cc(O)cc(-c3ncc4c(N5CCCC6CC6C5)nc(OC[C@@]56CCCN5C[C@H](F)C6)nc4c3F)c12 (stereo partly drawn) [Example 12, 4-(4-(3-Azabicyclo[5.1.0]octan-3-yl)-8-fluoro-2-(((2R,7aS)-2-fluorotetrahydro-1H-pyrrolizin-7a(5H)-yl)methoxy)pyrido[4,3-d]pyrimidin-7-yl)-5-ethynyl-6-fluoronaphthalen-2-ol] | < 50
13 | [2H]C([2H])(Oc1nc(N2CCCO[C@H]3C[C@H]32)c2cnc(-c3cc(N)cc4cc(F)c(F)c(C#C)c34)c(F)c2n1)[C@@]12CCCN1C[C@H](F)C2 [Example 17, 4-(4-((1S,7R)-2-Oxa-6-azabicyclo[5.1.0]octan-6-yl)-8-fluoro-2-(((2R,7aS)-2-fluorotetrahydro-1H-pyrrolizin-7a(5H)-yl)methoxy-d2)pyrido[4,3-d]pyrimidin-7-yl)-5-ethynyl-6,7-difluoronaphthalen-2-amine] | < 50
14 | C#Cc1c(F)ccc2cc(O)cc(-c3ncc4c(N5CCCC[C@@H]6C[C@@H]65)nc(OC[C@@]56CCCN5C[C@H](F)C6)nc4c3F)c12 [Example 1, 4-(4-((1S,7R)-2-Azabicyclo[5.1.0]octan-2-yl)-8-fluoro-2-(((2R,7aS)-2-fluorotetrahydro-1H-pyrrolizin-7a(5H)-yl)methoxy)pyrido[4,3-d]pyrimidin-7-yl)-5-ethynyl-6-fluoronaphthalen-2-ol] | 500 to 10000
